Results: patent publication US10519177B2, “Heterocyclic compounds and uses thereof” (Plexxikon Inc., priority 2013, dated 2019)
Where two headings read alike, the source gives them in different places.

Key:
bromodomain = assay: at least one of the bromodomain cell assays of Example 57; type: cell-based; details: at least one of the bromodomain cell assays described in Example 57; read-out: IC50 in at least one of the bromodomain cell assays
BRD4-BD12 (1-477) = BRD4-BD12 (1-477) (Homo sapiens (Human), UniProt O60885); assay: Alphascreen binding assay BRD4-BD12; details: BRD4(1 2) H4; read-out: Biochemical activity (IC50 μM) BRD4(1 2) H4
Method in brief: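 First, compound was preincubated 1 h at room temperature with the His-tagged BRD4 protein (BD1 44-164 or tandem BD12 1-477) and acetylated H4 peptide. Next, donor and acceptor beads were added at 7.5 μg/ml final. After 30 min, AlphaScreen emission was recorded.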

MV-4-11 cells = assay: Oncology cell growth assay MV-4-11 (CellTiter Glo); type: cell-based; details: Homo sapiens, MV4-11, 72 h, read-out: Cell activity (IC50 μM) MV-4-11 3d-Growth
Method in brief: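 MV-4-11 AML cells (MLL-AF4), 3000 per well, exposed to 8-point 1:3 compound titration from 10 μM top concentration (0.2% DMSO) for 72 h. Viability by CellTiter Glo luminescence, normalized to DMSO controls; pIC50 from four-parameter curve fit.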

Compound | IC50 (bromodomain) [nM] | IC50 (BRD4-BD12 (1-477)) [µM] | IC50 (MV-4-11 cells; MV-4-11, 3d growth) [µM] | IC50 (MV-4-11 cells) [µM]
Cc1ccc(-c2cn(Cc3ccccn3)c3cc(-c4c(C)noc4C)cnc23)cc1 [P-0805, 3,5-dimethyl-4-[3-(p-tolyl)-1-(2-pyridylmethyl)pyrrolo[3,2-b]pyridin-6-yl]isoxazole] | < 10000 | < 1 | < 1 | 
Cc1noc(C)c1-c1cnc2c(-c3ccc(B(O)O)cc3)cn(CC3CCC(F)(F)CC3)c2c1 [P-0596, [4-[1-[(4,4-difluorocyclohexyl)methyl]-6-(3,5-dimethylisoxazol-4-yl)pyrrolo[3,2-b]pyridin-3-yl]phenyl]boronic acid] | < 10000 | < 1 | < 1 | 
[2H]C([2H])(C1CCC(F)(F)CC1)n1ccc2ncc(-c3c(C)nnn3CC)cc21 [P-0360, 1-[dideuterio-(4,4-difluorocyclohexyl)methyl]-6-(3-ethyl-5-methyl-triazol-4-yl)pyrrolo[3,2-b]pyridine] | < 10000 | 1 to 10 |  | 10 to 200
Cc1noc(C)c1-c1cnc2c(-c3ccc(O)c(F)c3)cn(CC3(F)CCCCC3)c2c1 [P-0500, 4-[6-(3,5-dimethylisoxazol-4-yl)-1-[(1-fluorocyclohexyl)methyl]pyrrolo[3,2-b]pyridin-3-yl]-2-fluoro-phenol] | < 10000 | < 1 | < 1 | 
COC(=O)Nc1ccc(-c2cn(CC3(F)CCCCC3)c3cc(-c4c(C)noc4C)cnc23)cc1 [P-0493, methyl N-[4-[6-(3,5-dimethylisoxazol-4-yl)-1-[(1-fluorocyclohexyl)methyl]pyrrolo[3,2-b]pyridin-3-yl]phenyl]carbamate] | < 10000 | < 1 | < 1 | 
Cc1cc(-c2cn(CC3CCC(F)(F)CC3)c3cc(-c4c(C)noc4C)cnc23)ccc1C(=O)O [P-0483, 4-[1-[(4,4-difluorocyclohexyl)methyl]-6-(3,5-dimethylisoxazol-4-yl)pyrrolo[3,2-b]pyridin-3-yl]-2-methyl-benzoic acid] | < 10000 | < 1 | < 1 | 
Cn1cc(-c2cn(CC3CCC(F)(F)CC3)c3cc(-c4ccc(=O)n(C)c4)cnc23)cn1 [P-0438, 5-[1-[(4,4-difluorocyclohexyl)methyl]-3-(1-methylpyrazol-4-yl)pyrrolo[3,2-b]pyridin-6-yl]-1-methyl-pyridin-2-one] | < 10000 | < 1 | < 1 | 
Cc1noc(C)c1-c1cnc2c(-c3ccc(C4(C(=O)O)CC4)cc3)cn(CC3CCC(F)(F)CC3)c2c1 [P-0412, 1-[4-[1-[(4,4-difluorocyclohexyl)methyl]-6-(3,5-dimethylisoxazol-4-yl)pyrrolo[3,2-b]pyridin-3-yl]phenyl]cyclopropanecarboxylic acid] | < 10000 | < 1 |  | < 1
Cc1noc(C)c1-c1cnc2c(-c3ccc(C(=O)O)cc3)cn(CC3CCCC3)c2c1 [P-0552, 4-[1-(cyclopentylmethyl)-6-(3,5-dimethylisoxazol-4-yl)pyrrolo[3,2-b]pyridin-3-yl]benzoic acid] | < 10000 | < 1 | < 1 | 
[2H]C([2H])(C1CC(F)(F)C1)n1cc(-c2cnc(C3CC3)nc2)c2ncc(-c3c(C)noc3C)cc21 [P-0259, 4-[3-(2-cyclopropylpyrimidin-5-yl)-1-[dideuterio-(3,3-difluorocyclobutyl)methyl]pyrrolo[3,2-b]pyridin-6-yl]-3,5-dimethyl-isoxazole] | < 10000 | < 1 |  | < 1
Cc1noc(C)c1-c1cnc2c(-c3cnn(CC(F)(F)F)c3)cn(CC3CCCC3)c2c1 [P-0551, 4-[1-(cyclopentylmethyl)-3-[1-(2,2,2-trifluoroethyl)pyrazol-4-yl]pyrrolo[3,2-b]pyridin-6-yl]-3,5-dimethyl-isoxazole] | < 10000 | < 1 | < 1 | 
Cc1ccc(-c2cn(CC3CCC(F)(F)CC3)c3cc(-c4c(C)noc4C)cnc23)cc1 [P-0604, 4-[1-[(4,4-difluorocyclohexyl)methyl]-3-(p-tolyl)pyrrolo[3,2-b]oyridin-6-yl]-3,5-dimethyl-isoxazole] | < 10000 | < 1 | < 1 | 
Cc1noc(C)c1-c1cnc2c(-c3cnco3)cn(CC3CCC(F)(F)CC3)c2c1 [P-0400, 4-[1-[(4,4-difluorocyclohexyl)methyl]-3-oxazol-5-yl-pyrrolo[3,2-b]pyridin-6-yl]-3,5-dimethyl-isoxazole] | < 10000 | < 1 |  | < 1
Cc1noc(C)c1-c1cnc2c(-c3ccc(N)nc3)cn(CC3(F)CCCCC3)c2c1 [P-0520, 5-[6-(3,5-dimethylisoxazol-4-yl)-1-[(1-fluorocyclohexyl)methyl]pyrrolo[3,2-b]pyridin-3-yl]pyridin-2-amine] | < 10000 | < 1 | < 1 | 
COC(=O)c1ccc(-c2cn(CC3CCC(F)(F)CC3)c3cc(-c4c(C)noc4C)cnc23)cn1 [P-0418, methyl 5-[1-[(4,4-difluorocyclohexyl)methyl]-6-(3,5-dimethylisoxazol-4-yl)pyrrolo[3,2-b]pyridin-3-yl]pyridine-2-carboxylate] | < 10000 | < 1 |  | < 1
Cc1noc(C)c1-c1cnc2c(-c3ccc(S(=O)(=O)NC4CC4)cc3)cn(CC3(F)CCCCC3)c2c1 [P-0494, N-cyclopropyl-4-[6-(3,5-dimethylisoxazol-4-yl)-1-[(1-fluorocyclohexyl)methyl]pyrrolo[3,2-b]pyridin-3-yl]benzenesulfonamide] | < 10000 | < 1 | < 1 | 
Cc1noc(C)c1-c1cnc2c(C#CC(=O)O)cn(CC3CCC(F)(F)CC3)c2c1 [P-0462, 3-[1-[(4,4-difluorocyclohexyl)methyl]-6-(3,5-dimethylisoxazol-4-yl)pyrrolo[3,2-b]pyridin-3-yl]prop-2-ynoic acid] | < 10000 | < 1 | 1 to 10 | 
CCn1cc(-c2cnc3ccn(CC4CCC(F)(F)CC4)c3c2)ccc1=O [P-0517, 5-[1-[(4,4-difluorocyclohexyl)methyl]pyrrolo[3,2-b]pyridin-6-yl]-1-ethyl-pyridin-2-one] | < 10000 | 1 to 10 | 1 to 10 | 
CCOC(=O)c1ccc(-c2cn([C@@H](C)c3ccccn3)c3cc(-c4c(C)noc4C)cnc23)cc1 [P-0542, ethyl 4-[6-(3,5-dimethylisoxazol-4-yl)-1-[(1S)-1-(2-pyridyl)ethyl]pyrrolo[3,2-b]pyridin-3-yl]benzoate] | < 10000 | < 1 | < 1 | 
COC(=O)c1ccc(-c2cn([C@H](C)c3ccccn3)c3cc(-c4c(C)noc4C)cnc23)cc1 [P-0508, methyl 4-[6-(3,5-dimethylisoxazol-4-yl)-1-[(1R)-1-(2-pyridyl)ethyl]pyrrolo[3,2-b]pyridin-3-yl]benzoate] | < 10000 | < 1 | < 1 | 
Cc1onc(N)c1-c1cnc2c(-c3cnn(CC(F)(F)F)c3)cn(CC3CCC(F)(F)CC3)c2c1 [P-0368, 4-[1-[(4,4-difluorocyclohexyl)methyl]-3-[1-(2,2,2-trifluoroethyl)pyrazol-4-yl]pyrrolo[3,2-b]pyridin-6-yl]-5-methyl-isoxazol-3-amine] | < 10000 | < 1 |  | < 1
Cc1noc(C)c1-c1cnc2c(-c3csc(C(=O)O)c3)cn(CC3CCC(F)(F)CC3)c2c1 [P-0484, 4-[1-[(4,4-difluorocyclohexyl)methyl]-6-(3,5-dimethylisoxazol-4-yl)pyrrolo[3,2-b]pyridin-3-yl]thiophene-2-carboxylic acid] | < 10000 | < 1 | < 1 | 
CONC(=O)c1ccc(-c2cn(CC3(F)CCCCC3)c3cc(-c4c(C)noc4C)cnc23)cc1 [P-0497, 4-[6-(3,5-dimethylisoxazol-4-yl)-1-[(1-fluorocyclohexyl)methyl]pyrrolo[3,2-b]pyridin-3-yl]-N-methoxy-benzamide] | < 10000 | < 1 | < 1 | 
[2H]C([2H])(C1CCC(F)(F)CC1)n1cc(-c2cnc(N)cn2)c2ncc(-c3c(C)noc3C)cc21 [P-0364, 5-[1-[dideuterio-(4,4-difluorocyclohexyl)methyl]-6-(3,5-dimethylisoxazol-4-yl)pyrrolo[3,2-b]pyridin-3-yl]pyrazin-2-amine] | < 10000 | < 1 |  | < 1
Cc1noc(C)c1-c1cnc2c(-c3cnn(CC(=O)O)c3)cn(CC3CCC(F)(F)CC3)c2c1 [P-0482, 3-[4-[1-[(4,4-difluorocyclohexyl)methyl]-6-(3,5-dimethylisoxazol-4-yl)pyrrolo[3,2-b]pyridin-3-yl]pyrazol-1-yl]acetic acid] | < 10000 | < 1 | 10 to 200 | 
[2H]C([2H])(C1CC(F)(F)C1)n1cc(-c2cnn(C(F)F)c2)c2ncc(-c3c(C)noc3C)cc21 [P-0256, 4-[1-[dideuterio-(3,3-difluorocyclobutyl)methyl]-3-[1-(difluoromethyl)pyrazol-4-yl]pyrrolo[3,2-b]pyridin-6-yl]-3,5-dimethyl-isoxazole] | < 10000 | < 1 |  | < 1
Cc1noc(C)c1-c1cnc2c(-c3cnn(CCF)c3)cn(CC3(F)CCCCC3)c2c1 [P-0260, 4-[1-[(1-fluorocyclohexyl)methyl]-3-[1-(2-fluoroethyl)pyrazol-4-yl]pyrrolo[3,2-b]pyridin-6-yl]-3,5-dimethyl-isoxazole] | < 10000 | < 1 |  | < 1
